Experimental data taken from publication PMC9727064, “Performance assessment and economic analysis of a human Liver-Chip for predictive toxicology” (Communications Medicine, 2022).
Where a name gives a salt, the structure may show the parent alone. Read-outs that look alike come from different tables or passages of the source.

Key:
[1] = tested on: human Liver-Chip (primary human hepatocytes); experiment: Liver-Chip albumin production in top channel effluent (ELISA); assay type: cell-based; conditions: expanded drug list; lowest multiplier causing a 50% reduction in albumin production; donor 1
Description: (§1) Cycles 1 to 4 tested 6–8 concentrations in duplicate for each of 10–13 drugs. To determine which sampling strategy was optimal for cycles 1 to 4 (16 doses × 1 replicate, 8 × 2, 5 × 3, or 4 × 4), we generated three different “dose-response” synthetic datasets, each distorted by different noise levels (low, medium, or high). For each of these datasets, we performed curve-fitting analyses and calculated the Root Mean Square Error between the “true” and estimated IC50 parameter. […] Some drugs were also repeated across cycles (on different donors or at different concentrations) to ensure experimental robustness. However, to replicate a more typical study design likely to be carried out by scientists in the pharmaceutical industry, we created cycle 5 with 6 drugs, where each was tested in 4 concentrations in triplicate. For each cycle, chips were dosed with drug over 8 days (referred to as Day 0 through Day 7).
(§2) The drug dosing concentrations were determined from the unbound human Cmax of each drug. First, the expected fraction of drug unbound in media with 2% FBS was extrapolated from plasma binding data for each drug. Dosing concentrations were then back calculated such that the unbound fraction in media would reflect relevant multiples of unbound human Cmax (Supplementary Data 1).
(§3) On the first dosing day (Day 0), all chips were imaged using the ECHO microscope. Five hundred microliters of effluent was collected from all four reservoirs of the pod and placed in a labeled 96-well plate. After collection, all the remaining media was carefully aspirated before dosing with 3.8 mL of corresponding dosing solution. Dosing occurred on study days 0, 2, and 4 for chips flowing at 30 µL/h, and on days 0, 1, 2, 3, 4, 5, and 6 for chips flowing at 150 µL/h. Effluent collection occurred on days 1, 3, and 7.
(§4) Top channel outlet effluents were analyzed to quantify albumin and alanine transaminase (ALT) levels on days 1, 3, and 7 using sandwich ELISA kits (Abcam, Albumin ab179887, ALT ab234578) according to vendor-provided protocols. Frozen (−80 °C) effluent samples were thawed overnight at 4 °C prior to assay. The Hamilton Vantage liquid handling platform was used to manage effluent dilutions (1:500 for albumin, neat for ALT), preparation of standard curves, and addition of antibody cocktail. Absorbance at 450 nm was measured using the SynergyNeo Microplate Reader (BioTek).
All statistical analyses were conducted in R[21] (version 4.1.2) and figures were produced using the R package ggplot2[22] (version 3.3.5). The dose-response analysis (Fig. 4) was carried out using the popular drc R package developed by Ritz et al.[23] using the generalized log-logistic dose-response model. The error bars in Figs. 3 and 4, correspond to the standard errors of the mean. The circles in Fig. 3 correspond to the samples used to calculate the corresponding statistics. The analysis of significance in Fig. 3 was performed using paired t-test across different days (same donor) and unpaired t-test across different donors (same day). In Fig. 3 the number of samples used were n = 3 for donor two, and n = 4 for donor three. For both donors, the number of the freshly thawed hepatocyte samples used to estimate the corresponding log2(Fold Change) were n = 4. Finally, the analysis of significance in Fig. 3 was performed using paired t-test.

[2] = cited from earlier work
[3] = tested on: human Liver-Chip (primary human hepatocytes); experiment: Liver-Chip alanine transaminase (ALT) release in top channel effluent (ELISA); assay type: cell-based
Description: as §1, §2, §3, §4

[4] = tested on: human Liver-Chip (hepatocytes and non-parenchymal cells); conditions: for Morphology Donor 1: human
Experimental: At least four to six brightfield images were acquired per chip for morphology analysis. […] Brightfield images were acquired across three fields of view on days 1, 3, and 7 for each cycle. Cytotoxicity classification was performed while acquiring images for both NPCs and hepatocytes. Images were then scored zero to four by blinded individuals (n = 2) based on severity of agglomeration of cell debris for both channels. The scoring matrix and representative images have been included in the supplement (Supplementary Fig. 1).
Hepatocyte layer on Chips
Non-parenchymal cell layer on Chips
Supplementary Figure 1. (a) Representative brightfield images to depict the cellular morphology score in the top channel of the Liver-Chip which contains hepatocytes. A score of 0 represents no hepatotoxicity detected, which is defined by 95-100% healthy hepatocyte morphology, hexagonal shape containing binucleated cells, clear cell cytoplasm, distinctive cell junctions and less than 5% dead cells. A score of 1 […]
cells. A score of 2 represents mild hepatotoxicity with > 70% monolayer of hepatocytes visible, evidence that cells have begun to lose their distinct cell junctions, many cells contain a granulated cytoplasm but < 30% are dead cells. A score of 3 represents moderate hepatotoxicity with severe granulation of cytoplasm and most of the cells have lost their junctions. Approximately 50% of the cells are considered dead. A score of 4 represents severe hepatotoxicity with agglomeration of cell debris and > 50% of the cells are considered dead. The pores on the membrane become visible as there is no longer a cellular monolayer. (b) Representative brightfield images to depict the cellular morphology score in the bottom channel of the Liver-Chip which contains non-parenchymal cells. A score of 0 represents no cytotoxicity detected, with an intact monolayer and <1% of the cells are dead. A score of 1 represents at least 90% of the monolayer is present and there are <10% dead cells. A score of 2 represents mild cytotoxicity with > 80% of the monolayer present and < 20% are dead cells. A score of 3 represents moderate cytotoxicity with > 50% of the monolayer present and < 50% are dead cells. A score of 4 represents severe cytotoxicity with > 50% of the cells are considered dead. (bar, 50 μm). […]

[5] = tested on: human Liver-Chip (hepatocyte layer); experiment: Liver-Chip immunofluorescence imaging (caspase 3/7, TMRM, AdipoRed/LipidTOX); assay type: cell-based
Experimental: Chips were detached from pods and washed once with PBS. […] Afterwards, chips were washed with PBS and stored at 4 °C until staining. Following fixation, chips corresponding to low, medium, and high concentrations from each group were cut in half with a razor blade perpendicular to the co-culture channels. One half was used in the following staining protocol, while the other half was stored for future staining. All stains and washes utilized the bubble method, in which a small amount of air is flowed through the channel prior to bulk wash media to prevent a liquid-liquid dilution of the staining solution. […] Following 15 minutes of incubation at room temperature, each channel was washed with 200 µL of PBS (alternating channels, 2× for top and 3× for bottom). As an alternative lipid accumulation marker, 100 µL of HCS LipidTOX Deep Red (ThermoFisher, H34477) was diluted 1:1000 v/v in PBS with NucBlue counterstain and added to the top channel. After a 30 min incubation at room temperature, the chips were again allowed to reach room temperature before the channels were alternatively washed with 200 µL of PBS, the bottom channel undergoing three washes and the top channel undergoing two. Chips were then imaged using the Opera Phenix. Following lipid and DAPI staining and imaging, chips were stained with a […] (MRP2) antibody to visualize the bile canalicular structures characteristic of healthy Liver-Chips. […] Then, each channel was washed with 200 µL of PBS (alternating channels, 2× for top and 3× for bottom). […] Next, primary antibody Mouse anti-MRP2 (Abcam, ab3373) was prepared 1:100 in the original blocking buffer, diluted 1:4 in PBS. 100 µL of solution was added to each channel, and chips were stored overnight at 4 °C. The following day, each channel was washed with 200 µL of PBS (alternating channels, 2× for top and 3× for bottom). […] 100 µL of solution was added to each channel and chips incubated at room temperature, protected from light, for two hours. Then, each channel was washed with 200 µL of PBS (alternating channels, 2× for top and 3× for bottom). Chips were imaged immediately or stored at 4 °C until ready for imaging on the Opera Phenix. Chip replicates designated for live cell imaging were washed with PBS utilizing the bubble method. Chips were then cut in half perpendicular to the co-culture channels. […] The bottom chips halves were stained with NucBlue (Thermo) to visualize nuclei and Tetramethylrhodamine, methyl ester (TMRM) (ThermoFisher, I34361) to visualize active mitochondria. This staining panel was prepared in PBS with 5% FBS, with NucBlue at 2 drops per mL and TMRM at a 1:1000 ratio in original blocking buffer, diluted 1:4 in PBS. Chips were incubated in the dark at 37 °C for 30 min, and then each channel was washed with 200 µL of PBS (alternating channels, 2× for top and 3× for bottom). The chips were kept at 37 °C, protected from light, until ready for imaging with the Opera Phenix. Fluorescent confocal image acquisition was performed using the Opera Phenix High-Content Screening System and Harmony 4.9 Imaging and Analysis Software (PerkinElmer). Before acquisition, the Phenix internal environment was set to 37 °C and 5% CO2. […] Whole chips were placed directly into each slot, while top and bottom half chips were matched and combined in one chip slot. Chips were aligned flush with the adapter and one another. Any bubbles identified from visual inspection were washed out with PBS. Once ready, the stained chips were covered with transparent plate film to seal channel ports and loaded into the Phenix. […] Z-stacks were generated with 3.6 µm between slices for 28–32 planes so that the epithelium was located around the center of the stack. […] Raw images from fixed and live imaging were exported in TIFF format from the Harmony software. Using scripts written for FIJI (ImageJ), TIFFs across three color channels and multiple z-stacks were compiled into composite images for each field of view in each chip. […]

human Liver-Chip = experiment: Liver-Chip DILI prediction: minimum toxic concentration and margin of safety (MOS)-like figure; conditions: free IC50 concentration in the assay divided by total concentration of drug in human plasma at Cmax;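 also: Toxic concentration is the lowest across albumin IC50 and ALT and morphology endpoints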
Description: Because the fundamental principles of drug action dictate that free (unbound) drug concentrations drive drug effects, we explored an alternative methodology for calculating the MOS-like values by accounting for protein binding using a previously reported approach. Accordingly, we reanalyzed the findings for the 27 drugs in our study by accounting for protein binding.

[6] = tested on: 3D spheroid cultures of primary human hepatocytes; conditions: cited from earlier work
[7] = tested on: clinical drug-induced liver injury; conditions: clinical DILI severity category 1 to 5; cited from earlier work
[8] = plasma, cited from earlier work
[9] = human, total plasma Cmax, ref Proctor, W.R. et al. (29)

C[C@]12CC[C@@H]3c4ccc(O)cc4CC[C@H]3[C@@H]1CC[C@@H]2O [Beta-Estradiol]
Albumin IC50 Donor 1 [1]: >300 unbound human Cmax multiplier | Human Cmax Total ([2]; human, total plasma Cmax, ref Sivapalasingam, S. & Steigbigel, N. H. (67)): 0.0006 µM

O=C1CC2(CCCC2)CC(=O)N1CCCCN1CCN(c2ncccn2)CC1 [Buspirone]
ALT Donor 1 ([3]; lowest concentration causing an increase in ALT protein): > 300 multiples of the unbound human Cmax | Morphology Donor 1 [4]: >300 multiples of the unbound human Cmax | IF imaging Donor 1 ([5]; matched pair analysis): Apoptosis | Chip MOS donor 1 (human Liver-Chip): >15 | Human Cmax Total [2, 9]: 0.009 µM | Spheroid MOS ([6]; 3D hepatic spheroids, previously published data): 16,300 | Spheroid false negative ([6]; Yes/No, also No for drugs not tested in spheroid): No | Garside DILI rank [7]: 4

CN(C)CCC(c1ccc(Cl)cc1)c1ccccn1 (stereo not shown) [Chlorpheniramine maleate]
Human Cmax Total [2, 9]: 0.04 µM

CN(C)CCC(c1ccc(Cl)cc1)c1ccccn1 (stereo not shown) [Chlorpheniramine]
Chip MOS donor 1 (human Liver-Chip): >200 | Garside DILI rank [7]: 3

CN1CCN(C2=Nc3cc(Cl)ccc3Nc3ccccc32)CC1 [Clozapine]
Chip MOS both donors (human Liver-Chip; both donors): 1.8 | Chip MOS donor 1 (human Liver-Chip): 1.8 | Chip MOS donor 2 (human Liver-Chip; donor 2): 5 | Human Cmax Total [2, 9]: 2.4 µM | Expected Fraction Unbound in Plasma ([8]; ref Lau, S.W.J. (65)): 0.055

O=C(O)Cc1ccccc1Nc1c(Cl)cccc1Cl [Diclofenac sodium]
Human Cmax Total [2, 9]: 10.1 µM | Expected Fraction Unbound in Plasma ([8]; ref Lau, S.W.J. (65)): 0.005

O=C(O)Cc1ccccc1Nc1c(Cl)cccc1Cl [Diclofenac]
ALT change in words ([3]; Liver-Chip effluent): no elevation of ALT | ALT Donor 1 ([3]; expanded drug list, lowest concentration causing an increase in ALT release): > 1000 unbound human Cmax multiplier | Morphological injury score change in words [4]: concentration and time-dependent changes | Morphology Donor 1 [4]: 1000 unbound human Cmax multiplier | Immunofluorescence staining result in words ([5]; caspase 3/7 (apoptosis) or TMRM (mitotoxicity), 7 days): apoptosis-mediated cell death | Immunofluorescent findings, donor one (Supplementary Figure 3) ([5]; day 7 post-drug administration, hepatocyte layer, top channel, donor one): Apoptosis | IF imaging Donor 1 ([5]; expanded drug list): Apoptosis | Chip MOS donor 1 (human Liver-Chip): 1.8 | Spheroid MOS [6]: 6.1

CCc1nn(CCCN2CCN(c3cccc(Cl)c3)CC2)c(=O)n1CCOc1ccccc1 [Nefazodone hydrochloride]
Human Cmax Total [2, 9]: 4.3 µM

Cc1cc2c(cc1CC(=O)c1sccc1S(=O)(=O)[N-]c1onc(C)c1Cl)OCO2.[Na+] [Sitax(s)entan sodium salt]
Human Cmax Total ([2]; human, total plasma Cmax, ref National Center for Biotechnology Information (73)): 28.6 µM | Expected Fraction Unbound in Plasma ([8]; reference data from the literature, no reference): 0.01

N[C@@H]1[C@H]2CN(c3nc4c(cc3F)c(=O)c(C(=O)O)cn4-c3ccc(F)cc3F)C[C@@H]12 [Trovafloxacin mesylate]
Human Cmax Total ([2]; human therapeutic total plasma Cmax from literature, ref Xu, J. J. et al. (36)): 5 µM | Human Cmax Total ([2]; human, total plasma Cmax, ref Xu, J. J. et al. (36)): 5 µM
